Data reported in patent US11896589B2, “Diazinyl amino acridines and medical uses thereof” (MyCural Therapeutics AB, priority 2018, dated 2024).
Counter-ions that a name gives are not always drawn.

How the values were obtained:
MYCbHLHZip = target: T1, MYCbHLHZip (Homo sapiens, UniProt P01106); assay: Assay 2B MYC SPR assay; format: binding; settings: equilibrium binding experiments
T1 construct: An amino coupling procedure was used to immobilize MYCbHLHZip protein on a CM5 sensor chip
Procedure: FIG. 3: A) SPR assay to determine affinity of Example 1 to MYC. MYC bHLHZip protein was immobilized by aminocoupling on a CM5 sensor chip. Example 1 was injected at various concentrations in a kinetic experiment. The reference surface was subtracted from the analyte surface to generate a sensorgram. […] B) Four MYC equilibrium binding experiments with Example 1 summarized in an equilibrium binding plot. […] Equilibrium binding experiments of MYC with Example 2 and control compound (non-binder) were plotted as well. Assay 2B. MYC SPR Assay To analyze the direct binding of compounds to MYC, the direct binding of compounds to MYC was detected by surface plasmon resonance (SPR) as described above (Biological example 1—Assay 1B). An amino coupling procedure was used to immobilize MYCbHLHZip protein on a CM5 sensor chip (GE Healthcare) resulting in immobilization levels of approximately 800 respectively 1000 RU. The compounds were injected at different concentrations, one at a time, over the surface for 50-80 seconds with a flow rate of 30 μl/min. Afterwards the compounds were allowed to dissociate for 240 seconds in running buffer (137 mM NaCl, 2.7 mM KCl, 10 mM Na2HPO4, 1.8 mM KH2PO4, 0.005% Tween-20, 1% DMSO, pH 7.4). To remove all remaining analyte the surface was regenerated with 2M Urea for 30 seconds and thereafter 1M NaCl, 2.7 mM KCl, 10 mM Na2HPO4, 1.8 mM KH2PO4, 1% DMSO, pH 7.4 for 30 seconds. Sensorgrams were generated by subtraction of the reference (blank immobilized) surface. Binding responses were related to respective compounds' Rmax. Rmax is the maximum response of a compound when it binds with a 1:1 stochiometry to the protein; Rmax=(MW analyte/MW ligand)×immobilized ligand level on the chip (RU) x stoichiometry (1:1). Kinetic experiments were carried out where recombinant MYC bHLHZip was immobilized on the chip and different concentrations of Example 1 were injected as above. […] Example 2-6 were analyzed for their MYC binding properties by equilibrium binding experiments as described for example 1.

[1] = test system: Tgr and H0Myc3 Rat1 fibroblast cells; assay: Assay 5B Tgr cell growth (WST-1), MYC expressing; format: cell-based, rat; settings: Tgr/H0Myc3 vs H015.19
Procedure: (§1) FIG. 6: A-B) Neuroblastoma cell lines with (SK-N-DZ, Kelly and IMR-32) or without (SK-N-F1, SK-N-RA and SK-N-AS) MYCN-amplification were exposed to different concentrations of Example 1, Example 2 and control compound, respectively, for 48 hours. Cell growth and viability was estimated by measuring metabolic activity. C) Growth of TGR-1 (wt), HO15.19 (MYC knockout) and HOmyc3 (MYC reconstituted HO15.19) Rat1 fibroblasts, as measured by the WST-1 assay after treatment with Example 1. Data are shown as mean±standard deviation of 3-5 biological experiments, each with 3 technical repeats.
Assay 5B: Tgr Cell Growth
Tgr cells were treated at 37° C. and 5% CO2 at 48 hours with Example and Example 2. H015.19 is a MYC null rat cell line derived from Tgr1 (parental cells), while H0Myc3 cells were generated from the MYC null cells by reconstitution of a MYC gene(Mateyak, M. K., Obaya, A. J., Adachi, S. & Sedivy, J. M. Phenotypes of c-Myc-deficient rat fibroblasts isolated by targeted homologous recombination. Cell Growth Differ 8, 1039-1048 (1997)).

[2] = test system: MYCN-amplified neuroblastoma cells (SK-N-DZ, Kelly, IMR-32); assay: Assay 5A neuroblastoma cell growth (WST-1), MYCN-amplified; format: cell-based; settings: Homo sapiens
Procedure: as §1
(§2) Assay 5A: Neuroblastoma Cell Growth
(§3) Neuroblastoma cell lines with (SK-N-DZ, Kelly and IMR-32) or without (SK-N-F1, SK-N-RA and SK-N-AS) MYCN-amplification were exposed to different concentrations of example compounds for 48 hours. Cell growth and viability was estimated by measuring metabolic activity by incubating cells in triplicates with WST-1 (Roche) in medium at 37° C. and 5% CO2 for 2 hours after which absorbance was measured with an Omega Fluostar (BMG Labtech) in a 96 well plate format.

[3] = test system: non-MYCN-amplified neuroblastoma cells (SK-N-F1, SK-N-RA, SK-N-AS); assay: Assay 5A neuroblastoma cell growth (WST-1), non-MYCN-amplified; format: cell-based; settings: Homo sapiens, SK-N-AS
Procedure: as §1, §2, §3

[4] = target: T2, MYC:MAX (MYC-GLuc-C + MAX-GLuc-N) in HEK293 cells (Homo sapiens, UniProt P01106); assay: Assay 3C GLuc complementation assay; format: cell-based; settings: HEK293
T2 construct: expressed in transfected cells; host or cells: HEK293 (also COS-7)
Procedure: FIG. 4: A) Endogenous MYC:MAX (upper panel) and FRA1:JUN (lower panel) interactions as visualized as fluorescent red dots by isPLA. Nuclei were counterstained with DAPI (blue). Cells were treated with 10 μM of indicated compounds for 16 hours and subjected to isPLA using pairs of MYC and MAX and of FRA1 and JUN antibodies, respectively. As negative control, primary antibody pairs but only one oligo-conjugated secondary antibody was used. B) Quantification of MYC:MAX and C) FRA1:JUN isPLA, representing an average number of nuclear dots per cell from three microscopic fields normalized to corresponding values for DMSO-treated cells. […] 1st-4th lanes from top; coimmunoprecipitated MAX, immunoprecipitated MYC, total levels of MAX and ACTIN, respectively, as determined by western blot analysis. E) MYC:MAX GLuc assay in cells. […] 24 hours later cells were treated with […] of Example 1, Example 2 and control compound for 16 hours and thereafter analyzed in a dual luciferase assay. The ratio of Gaussia/Firefly luciferase luminescence were calculated and normalized to DMSO-treated cells.
The protein fragment complementation assay using the Gaussia luciferase (GLuc) has been described (Remy, I. & Michnick, S. W. A highly sensitive protein-protein interaction assay based on Gaussia luciferase. Nat Methods 3, 977-979, doi:10.1038/nmeth979 (2006)). […] 24 hours later cells were treated with compound or DMSO. After another 17 hours the cells were harvested and lyzed in passive lysis buffer (Promega) supplemented with complete protease inhibitor (Roche). After 60 min incubation at room temperature 20 μM D-luciferin was added (substrate of Firefly luciferase) and luminescence was measured in a Lumat LB9501 (Berthold) or OmegaFluostar (BMG Labtech) luminometer. Directly after, the Gaussia luciferase substrate Coelenterazine (Promega) was added to a final concentration of 20 μM and the luciferase activity was measured. The ratio between Gaussia and Firefly luciferase values were calculated and normalized to DMSO-treated control cells.

T1 sequence (P01106 368-449 limits assumed): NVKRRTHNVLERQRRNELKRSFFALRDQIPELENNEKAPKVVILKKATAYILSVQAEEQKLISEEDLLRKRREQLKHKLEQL
T2 sequence (P01106 whole entry): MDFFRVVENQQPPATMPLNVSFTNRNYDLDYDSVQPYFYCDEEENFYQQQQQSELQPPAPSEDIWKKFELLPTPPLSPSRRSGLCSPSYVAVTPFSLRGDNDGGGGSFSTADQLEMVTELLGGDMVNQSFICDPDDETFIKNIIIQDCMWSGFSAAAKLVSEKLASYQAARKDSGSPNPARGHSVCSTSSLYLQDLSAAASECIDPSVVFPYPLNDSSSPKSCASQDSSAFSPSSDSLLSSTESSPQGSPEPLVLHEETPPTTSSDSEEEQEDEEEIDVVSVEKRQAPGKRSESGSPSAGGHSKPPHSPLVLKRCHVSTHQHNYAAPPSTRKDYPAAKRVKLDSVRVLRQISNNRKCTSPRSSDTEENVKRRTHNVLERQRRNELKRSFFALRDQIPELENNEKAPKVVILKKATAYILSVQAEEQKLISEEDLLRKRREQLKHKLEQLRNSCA

In the case of CCOc1ccc2nc3cc(/N=N/c4cc(C)c(O)cc4C)ccc3c(N)c2c1 [Example 2, 4-((9-amino-7-ethoxyacridin-3-yl)diazenyl)-3,6-dimethylphenol], the “Binding relative to Rmax” value (MYCbHLHZip) is reported as 1.2 Response Units, the “discrimination between cells dependent on MYC status” value [1] is reported as “discriminated between cells dependent on MYC status” and the GI50 ([2]; first run, 48 hours) is reported as 4 µM. It also gave a GI50 ([2]; second run) of 2.5 µM, a GI50 ([3]; 48 h, first run) of 12.5 µM and a GI50 ([3]; second run) of 10 µM. The inhibition at 10 µM [4] was 65%.
CCOc1ccc2nc3cc(/N=N/c4c(C)cc(O)cc4C)ccc3c(N)c2c1 [Example 3, 4-((9-amino-7-ethoxyacridin-3-yl)diazenyl)-3,5-dimethylphenol hydrate] was tested, and the “Binding relative to Rmax” value (MYCbHLHZip) was 1.5 Response Units, the GI50 ([2]; second run) was 2 µM and the GI50 ([3]; second run) was greater than 25 µM.
For CCOc1ccc2nc3cc(/N=N/c4cc(C)c(O)c(C)c4)ccc3c(N)c2c1 [Example 6, 4-((9-amino-7-ethoxyacridin-3-yl)diazenyl)-2,6-dimethylphenol], the “Binding relative to Rmax” value (MYCbHLHZip) was 0.8 Response Units, the GI50 ([2]; second run) was 1 µM and the GI50 ([3]; second run) was greater than 25 µM.
Work on CCOc1ccc2nc3cc(/N=N/c4ccc(O)c(CNCCN(C)C)c4)ccc3c(N)c2c1 [Example 8, 4-[(E)-(9-amino-7-ethoxy-acridin-3-yl)azo]-2-[[2-(dimethylamino)ethylamino]methyl]phenol hydrochloride] yielded a GI50 ([2]; second run) of 4 µM and a GI50 ([3]; second run) of 10 µM.
CCOc1ccc2nc3cc(/N=N/c4ccc(O)c(CN(C)CCN(C)C)c4)ccc3c(N)c2c1 [Example 9, 4-[(E)-(9-amino-7-ethoxy-acridin-3-yl)azo]-2-[[2-(dimethylamino)ethyl-methyl-amino]methyl]phenol] gave a GI50 ([2]; second run) of 6 µM and a GI50 ([3]; second run) of 11 µM.
Work on CCOc1ccc2nc3cc(/N=N/c4ccc(O)c(CO)c4)ccc3c(N)c2c1 [Example 10, 4-[(E)-2-(9-amino-7-ethoxyacridin-3-yl)diazen-1-yl]-2-(hydroxymethyl)phenol] yielded a GI50 ([2]; second run) of 15 µM.
CCOc1ccc2nc3cc(/N=N/c4ccc(O)c(CN(C)C)c4)ccc3c(N)c2c1 [Example 12, 4-[(E)-2-(9-amino-7-ethoxyacridin-3-yl)diazen-1-yl]-2-((dimethylamino)methyl)phenol] gave a GI50 ([2]; second run) of 25 µM.
